Assay results reported in patent publication US20250066358A1, “Inhibitors of Menin-MLL Interaction” (Bala Therapeutics, Inc., priority 2021, published 2025).

Key:
[1] = target: T1, recombinant MEN1 protein and fluorescein-labeled MLL4-43 peptide (Homo sapiens, UniProt O00255); assay: Primary fluorescence polarization assay of MEN1 / MLL4-43 interaction inhibition; assay type: binding; conditions: MEN1 10 nM, MLL4-43 0.5 nM, 1 hour at room temperature
T1 construct: purchased Creativebiomart MEN1-35H
T1 sequence (O00255 1-610): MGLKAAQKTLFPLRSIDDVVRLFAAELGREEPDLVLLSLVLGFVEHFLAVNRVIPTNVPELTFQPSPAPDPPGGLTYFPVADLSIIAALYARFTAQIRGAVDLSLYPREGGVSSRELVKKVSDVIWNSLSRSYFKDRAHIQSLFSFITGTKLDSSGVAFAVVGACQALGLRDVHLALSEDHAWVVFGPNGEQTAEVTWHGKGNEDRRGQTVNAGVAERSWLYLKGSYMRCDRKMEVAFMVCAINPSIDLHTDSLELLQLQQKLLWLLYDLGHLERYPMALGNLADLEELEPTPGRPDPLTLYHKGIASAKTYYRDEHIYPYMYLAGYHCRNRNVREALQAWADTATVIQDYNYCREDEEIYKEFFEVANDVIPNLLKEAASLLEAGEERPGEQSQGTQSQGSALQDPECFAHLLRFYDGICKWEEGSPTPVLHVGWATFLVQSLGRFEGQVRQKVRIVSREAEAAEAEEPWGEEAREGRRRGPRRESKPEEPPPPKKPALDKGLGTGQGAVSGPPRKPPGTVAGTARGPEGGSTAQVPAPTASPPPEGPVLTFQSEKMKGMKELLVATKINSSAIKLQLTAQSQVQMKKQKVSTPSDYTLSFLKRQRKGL
Description: Compound activity was determined using recombinant MEN1 protein (Creativebiomart, Cat #MEN1-35H) and a custom fluorescein-labeled MLL4-43 peptide (Eton Bioscience Inc.). Interaction between MEN1 and MLL4-43 in the presence of compounds was determined by fluorescence polarization assay using a Microplate Reader ClarioStar Plus. The reaction was carried out in assay buffer (50 mM TRIS-HCl PH 7.4-7.6, 50 mM NaCl, 1 mM DTT, 0.1 mg/ml BSA). The compounds were dispensed on a 384 well Diamond Well Plate (Axigen, Cat #P-384-120 SQ-C—S) using the Biomek FX liquid handling system at 100× solutions of compounds in DMSO. 2× MEN1 mix (final concentration of MEN1 10 nM) was prepared in Assay buffer and 10 μl of mixture per well was added into 384w white Reaction plate with NBS(Corning, Cat #4513). 10 μl of Assay buffer w/o MENI was used for negative control. Plates were centrifuged for 1 min at 100 g. Next step the Compounds were added to Reaction plate using Biomek station via following steps: 3 μl of 100× compounds (in DMSO) were mixed thoroughly with 27 μl Assay Buffer, then 2 μl of this mixture was added to Reaction plate with 10 μl of MENI mix. Plates were centrifuged for 1 min at 100 g and incubated for 20 min at room temperature. Next 8 μL of MLL4-43 peptide per well was added to final concentration of MLL 0.5 nM. Plates were incubated for 1 hour at room temperature. Then fluorescence polarization was measured using Microplate Reader.

[2] = system: MV4-11; assay: MV4-11 Cellular Growth Inhibition Assay (CellTiter-Glo); assay type: cell-based; conditions: Homo sapiens, 168 h, MV4-11 cells, 7 days of incubation
Description: (§1) HEK293 (Institute of Cytology Russian Academy of Science), MV4-11 (ATCC, CRL-9591), MOLM-13 (AcceGen, ABC-TC517S) were seeded at a density of 500 cells per well (HEK293) and 2000 cells per well (MV4-11, MOLM-13) in a 384-well clear bottom plate (Greiner Cat #781090) in 45 μl total volume of DMEM (PanEco, Cat #C420, Russia) or RPMI (PanEco, Cat #C330, Russia) with 10% FBS(HyClone Cat #SV30160.03). HEK293 were allowed to adhere overnight at 37° C., 5% CO2. 500× compounds solutions in DMSO (Sigma Cat #D2650) were prepared into Cmpnds plate (Diamond Well Plate, Axigen, Cat #P-384-120 SQ-C—S) and DMSO only control was included. 1 μl of 500× compounds (Cmpnds plate) was added to 49 μl of culture medium into Dilution plate (Diamond Well Plate, Axigen, Cat #P-384-120 SQ-C—S), mixed and then 5 μl of 10× compounds solutions were transferred to cells followed by centrifugation at 100 g for 1 min. Final DMSO concentration was 0.2%. After 3 days of incubation, 10 μl of 1× compounds were added to cells. After 7 days of incubation, 12 μl of CellTiter-Glo (Promega, CAT #G7572) were added to the cells, plate was centrifuged at 100 g for 1 min and luminescence signal was measured using Microplate Reader (CLARIOStar).

[3] = system: MOLM-13; assay: MOLM-13 Cellular Growth Inhibition Assay (CellTiter-Glo); assay type: cell-based; conditions: Homo sapiens, 168 h, MOLM-13 cells, 7 days of incubation
Description: as §1

[4] = HEK293 Cellular Growth Inhibition Assay (CellTiter-Glo); assay type: cell-based; conditions: human, HEK293 cells, 7 days of incubation
Description: as §1

SMILES	EC50 [1]	CC50 [2]	CC50 [3]	CC50 at 7 days [4]
CCS(=O)(=O)NC12CC(CN3CCC4(CC3)CN(c3ncnc5ccc(CC(F)(F)F)cc35)C4)(C1)C2 [Compound 74, N-(3-((2-(6-(2,2,2-trifluoroethyl)quinazolin-4-yl)-2,7-diazaspiro[3.5]nonan-7-yl)methyl)bicyclo[1.1.1]pentan-1-yl)ethanesulfonamide]	1 to 5 µM	> 10 µM	10 to 20 µM	30 to 50 µM
CCS(=O)(=O)N[C@H]1CC[C@H](CN2CCC3(CC2)CN(c2ncnc4ccc(CC(C)c5ccccc5)cc24)C3)CC1 (mixture of isomers) [Compound 59, N-((1R,4R)-4-((2-(6-((RS)-2-phenylpropyl)quinazolin-4-yl)-2,7-diazaspiro[3.5]nonan-7-yl)methyl)cyclohexyl)ethanesulfonamide]	0.075 to 0.5 µM	≤ 1 µM	≤ 1 µM	≤ 5 µM
FC(F)(F)Cc1ccc2ncnc(N3CC4(CCN(Cc5ccc6[nH]ccc6c5)CC4)C3)c2c1 [Compound 90, 4-(7-((1H-indol-5-yl)methyl)-2,7-diazaspiro[3.5]nonan-2-yl)-6-(2,2,2-trifluoroethyl)quinazoline]	0.5 to 1 µM	2.5 to 5 µM	5 to 10 µM	5 to 15 µM
CCS(=O)(=O)Nc1ccc(CN2CCC3(CC2)CN(c2ncnc4ccc(CCc5ccncc5)cc24)C3)cc1 [Compound 49, N-(4-((2-(6-(2-(pyridin-4-yl)ethyl)quinazolin-4-yl)-2,7-diazaspiro[3.5]nonan-7-yl)methyl)phenyl)ethanesulfonamide]	1 to 5 µM	5 to 10 µM	10 to 20 µM	30 to 50 µM
CCNS(=O)(=O)c1ccc(CN2CC3(CCN(c4ncnc5ccc(CC(F)(F)F)cc45)CC3)C2)cc1 [Compound 45, N-ethyl-4-((7-(6-(2,2,2-trifluoroethyl)quinazolin-4-yl)-2,7-diazaspiro[3.5]nonan-2-yl)methyl)benzenesulfonamide]	1 to 5 µM	5 to 10 µM	5 to 10 µM	15 to 30 µM
CCS(=O)(=O)Nc1ccc(CN2CC3(CCN(c4ncnc5ccc(CC(F)(F)F)cc45)CC3)C2)cc1 [Compound 43, N-(4-((7-(6-(2,2,2-trifluoroethyl)quinazolin-4-yl)-2,7-diazaspiro[3.5]nonan-2-yl)methyl)phenyl)ethanesulfonamide]	1 to 5 µM	5 to 10 µM	5 to 10 µM	15 to 30 µM
CCS(=O)(=O)N[C@H]1CC[C@H](CN2CCC3(CC2)CN(c2ncnc4ccc(CCc5ccccc5)cc24)C3)CC1 [Compound 51, N-((1R,4R)-4-((2-(6-phenethylquinazolin-4-yl)-2,7-diazaspiro[3.5]nonan-7-yl)methyl)cyclohexyl)ethanesulfonamide]	0.5 to 1 µM	2.5 to 5 µM	5 to 10 µM	5 to 15 µM
CCS(=O)(=O)Nc1ccc(CN2CCC3(CC2)CN(c2ncnc4ccc(CCc5ccccc5)cc24)C3)cc1 [Compound 52, N-(4-((2-(6-phenethylquinazolin-4-yl)-2,7-diazaspiro[3.5]nonan-7-yl)methyl)phenyl)ethanesulfonamide]	0.5 to 1 µM	1 to 2.5 µM	1 to 5 µM	5 to 15 µM

The next lines start with results.

EC50 [1]	SMILES	CC50 [2]	CC50 [3]	CC50 at 7 days [4]
> 5 µM	CCS(=O)(=O)N[C@H]1CC[C@H](CN2CCC3(CC2)CN(c2ncnc4ccc(C#Cc5ccccc5)cc24)C3)CC1 [Compound 53, N-((1R,4R)-4-((2-(6-(phenylethynyl)quinazolin-4-yl)-2,7-diazaspiro[3.5]nonan-7-yl)methyl)cyclohexyl)ethanesulfonamide]	2.5 to 5 µM	5 to 10 µM	≤ 5 µM
0.5 to 1 µM	CCS(=O)(=O)N[C@H]1CC[C@H](CN2CCC3(CC2)CCN(c2ncnc4ccc(CC(F)(F)F)cc24)CC3)CC1 [Compound 3, N-((1R,4R)-4-((9-(6-(2,2,2-trifluoroethyl)quinazolin-4-yl)-3,9-diazaspiro[5.5]undecan-3-yl)methyl)cyclohexyl)ethanesulfonamide]	5 to 10 µM	10 to 20 µM	5 to 15 µM
1 to 5 µM	CCS(=O)(=O)Nc1ccc(CN2CCC(Nc3ncnc4ccc(CC(F)(F)F)cc34)CC2)cc1 [Compound 36, N-(4-((4-((6-(2,2,2-trifluoroethyl)quinazolin-4-yl)amino)piperidin-1-yl)methyl)phenyl)ethanesulfonamide]	5 to 10 µM	5 to 10 µM	15 to 30 µM
> 5 µM	CCS(=O)(=O)Nc1ccc(CN2CCC3(CC2)CN(c2ncnc4cc(CC(F)(F)F)ccc24)C3)cc1 [Compound 8, N-(4-((2-(7-(2,2,2-trifluoroethyl)quinazolin-4-yl)-2,7-diazaspiro[3.5]nonan-7-yl)methyl)phenyl)ethanesulfonamide]	5 to 10 µM	10 to 20 µM	15 to 30 µM
0.5 to 1 µM	CCS(=O)(=O)N[C@H]1CC[C@H](CN2CCC3(CC2)CN(c2ncnc4ccc(CCc5cccnc5)cc24)C3)CC1 [Compound 56, N-((1R,4R)-4-((2-(6-(2-(pyridin-3-yl)ethyl)quinazolin-4-yl)-2,7-diazaspiro[3.5]nonan-7-yl)methyl)cyclohexyl)ethanesulfonamide]	5 to 10 µM	5 to 10 µM	15 to 30 µM
≤ 0.075 µM	FC(F)(F)Cc1ccc2ncnc(N3CC4(CCN(Cc5cccc6[nH]ccc56)CC4)C3)c2c1 [Compound 83, 4-(7-((1H-indol-4-yl)methyl)-2,7-diazaspiro[3.5]nonan-2-yl)-6-(2,2,2-trifluoroethyl)quinazoline]	1 to 2.5 µM	5 to 10 µM	5 to 15 µM
0.5 to 1 µM	CCS(=O)(=O)N[C@H]1CC[C@H](CN2CCC3(CC2)CN(c2ncnc4ccc(CCc5ccncc5)cc24)C3)CC1 [Compound 48, N-((1R,4R)-4-((2-(6-(2-(pyridin-4-yl)ethyl)quinazolin-4-yl)-2,7-diazaspiro[3.5]nonan-7-yl)methyl)cyclohexyl)ethanesulfonamide]	> 10 µM	> 20 µM	30 to 50 µM
0.075 to 0.5 µM	CCS(=O)(=O)N[C@H]1CC[C@H](CN2CCC3(CC2)CN(c2ncnc4ccc(CCc5cccc(F)c5)cc24)C3)CC1 [Compound 61, N-((1R,4R)-4-((2-(6-(3-fluorophenethyl)quinazolin-4-yl)-2,7-diazaspiro[3.5]nonan-7-yl)methyl)cyclohexyl)ethanesulfonamide]	1 to 2.5 µM	1 to 5 µM	5 to 15 µM
1 to 5 µM	CCS(=O)(=O)Nc1ccc(CN2CCC3(CC2)CCN(c2ncnc4ccc(CC(F)(F)F)cc24)CC3)cc1 [Compound 1, N-[4-[[3-[6-(2,2,2-trifluoroethyl)quinazolin-4-y1]-3,9-diazaspiro[5.5]undecan-9-yl]methyl]phenyl]ethanesulfonamide]	2.5 to 5 µM	5 to 10 µM	5 to 15 µM
